Data: EP4803523A1, “FUSED HETEROARYL COMPOUND, PREPARATION METHOD THEREFOR, AND USE THEREOF IN MEDICINE” (Jiangsu Hengrui Pharmaceuticals Co., Ltd., priority 2023, dated 2025)

What was measured:
[1] = system: AGS; assay: 3D cell proliferation inhibition assay (CellTiter-Glo 3D); format: cell-based; conditions: Homo sapiens, 120 h; AGS cells, KRAS G12D, 3D culture, 5 days with compound
Protocol: (§1) This experiment uses the cells listed in the table below to evaluate the inhibitory effects of the compounds on the proliferation of KRAS mutant or KRAS amplified cells.
(§2) On the first day of the experiment, cells that were growing well and had reached 70%-80% confluence were digested, resuspended in culture medium, and the cell density was adjusted to the desired level. In a U-shaped low-attachment 96-well plate (Corning, 7007), 90 µL of cell suspension was added per well, with the cell density as shown in the table above. The cell plate was centrifuged at 2500 rpm for 5 minutes and then placed in an incubator for 24 hours of culture. On the second day, the 20 mM test compound dissolved in DMSO was diluted with DMSO to the first concentration of 2 or 0.2 mM, and then serially diluted in a 5-fold gradient to obtain 9 concentration points, with the control well containing DMSO. The serially diluted compound was then further diluted 20-fold with culture medium. 10 µL of the test compound diluted in culture medium was added to each well of the cell plate. The final concentrations of the compound were 9 points in a 5-fold serial dilution starting from 10 or 1 µM. Cell wells containing 0.5% DMSO were set as vehicle control wells, and wells containing only culture medium and 0.5% DMSO were set as blank control wells. The cell plate was centrifuged at 2000 rpm for 3 minutes and then placed in an incubator for 5 days of culture. On the seventh day, the 96-well cell culture plate was taken out, and 50 µL of the luminescent cell viability detection reagent, CellTiter-Glo® 3D Cell Viability Assay (Promega, G9683), was added to each well. After shaking at room temperature for 25 minutes, the mixture was pipetted up and down to mix, and 100 µL was transferred from each well to a white, opaque-bottom OptiPlate™-96 well plate (PerkinElmer, 6005290). The luminescence signal value was read using a multimode microplate reader (PerkinElmer, EnVision2105).
(§3) The inhibition rate was calculated using the following formula: Inhibition rate = (Luminescence value vehicle control well - Luminescence value test compound)/(Luminescence value vehicle control well - Luminescence value blank control well) × 100%. The IC50 values of the compound inhibitory activity were calculated using Graphpad Prism software. Table 1. Data of inhibitory activity on 3D cell proliferation (unit: nM)

[2] = system: AsPC-1; assay: as above; format: cell-based; conditions: Homo sapiens, ASPC1, 120 h; AsPC-1 cells, KRAS G12D, 3D culture, 5 days with compound
Protocol: as §1, §2, §3

[3] = system: MKN1; assay: as above; format: cell-based; conditions: Homo sapiens, MKN-1, 120 h; MKN1 cells, KRAS Amp, 3D culture, 5 days with compound
Protocol: as §1, §2, §3

[4] = system: GP2d; assay: as above; format: cell-based; conditions: GP2d, 120 h, GP2d cells, KRAS G12D, 3D culture, 5 days with compound
Protocol: as §1, §2, §3

[5] = system: SW620; assay: as above; format: cell-based; conditions: Homo sapiens, SW-620, 120 h; SW620 cells, KRAS G12V, 3D culture, 5 days with compound
Protocol: as §1, §2, §3

[6] = system: H358; assay: as above; format: cell-based; conditions: Homo sapiens, NCI-H358, 120 h; H358 cells, KRAS G12C, 3D culture, 5 days with compound
Protocol: as §1, §2, §3

[7] = in vivo; conditions: both, SD, rat, plasma, po
Protocol: Using SD rats as the test animals, the plasma concentrations of the example compounds at different time points were determined by LC-MS/MS following oral gavage (i.g.) administration. The pharmacokinetic behaviours of the compounds of the present disclosure in rats were investigated, and their pharmacokinetic profiles were evaluated.
Blood samples (0.2 mL) were collected from the orbit before administration and at 0.25, 0.5, 1.0, 2.0, 4.0, 6.0, 8.0, 11.0, and 24.0 hours after administration. The samples were placed in EDTA-K2 anticoagulant tubes, centrifuged at 10,000 rpm for 2 minute (4°C), and the plasma was separated within 1 hour and stored at -20°C or -80°C until analysis. The entire process from blood collection to centrifugation was performed in ice bath conditions.
The mixture was vortexed and then centrifuged at 4000 rpm for 15 minutes; the supernatant was taken for LC-MS/MS analysis. […] The mixture was vortexed and then centrifuged at 3700 rpm for 10 minutes; the supernatant was taken for LC-MS/MS analysis.
The mixture was vortexed and then centrifuged at 4000 rpm for 15 minutes; the supernatant was taken for LC-MS/MS analysis. […] The mixture was vortexed and then centrifuged at 4000 rpm for 15 minutes; the supernatant was taken for LC-MS/MS analysis.

[8] = Pharmacokinetic evaluation, mouse experiment (oral gavage, plasma LC-MS/MS); format: in vivo; conditions: balb/c nude mice, female, oral gavage (i.g.), 20.0 mg/kg
Protocol: Using balb/c nude mice as the test animals, the plasma concentrations of the example compounds at different time points were determined by LC-MS/MS following oral gavage (i.g.) administration. The pharmacokinetic behaviours of the compounds of the present disclosure in mice were investigated, and their pharmacokinetic profiles were evaluated.
Nine balb/c nude mice, female, were provided by Beijing Vital River Laboratory Animal Technology Co., Ltd. (Production License Number: SCXK(Zhejiang) 2024-0001).
A given amount of the test compound was weighed and formulated with 5% DMF + 45% PG + 50% (10% HS15-pH7.4 buffer) to prepare a 2.0 mg/mL clear and colourless solution.
The administration dose was 20.0 mg/kg, and the administration volume was 10 mL/kg.
Blood samples (0.1 ml) were collected from the orbit before administration and at 0.25, 0.5, 1.0, 2.0, 4.0, 6.0, 8.0, 11.0, and 24.0 hours after administration. The samples were placed in EDTA-K2 anticoagulant tubes, centrifuged at 10,000 rpm for 1 minute (4°C), and the plasma was separated within 1 hour and stored at -20°C or -80°C until analysis. The entire process from blood collection to centrifugation was performed in ice bath conditions. Food was provided 2 hours after administration.
The concentration of the test compound in mouse plasma after administration was determined as follows: 20 µL of the plasma sample collected at each time point after administration was taken, and 200 µL of internal standard acetonitrile solution (containing 20 ng/mL verapamil) was added. The mixture was vortexed and then centrifuged at 4000 rpm for 15 minutes; the supernatant was taken for LC-MS/MS analysis.

SMILES | IC50 [1] | IC50 [2] | IC50 [3] | IC50 [4] | IC50 [5] | IC50 [6] | also measured
N#Cc1c(N)sc2c(F)ccc(-c3c4c(c5cnc(OCC67CCCN6CC(=C(F)F)C7)nc5c3F)COC4)c12 (single isomer, unassigned) [Example 44A] | 5.03 nM | 8.36 nM | 1.3 nM | 2.59 nM | 3.4 nM | 2.78 nM | –
C[C@@H](O)CN1CC2CCC(C1)N2c1nc(OCC2(CN3CCC(=C(F)F)CC3)CC2)nc2c(F)c(-c3ncc(F)c4sc(N)c(C#N)c34)c3c(c12)COC3 [Example 2, 2-amino-4-(3-((1-((4-(difluoromethylene)piperidin-1-yl)methyl)cyclopropyl)methoxy)-5-fluoro-1-(3-((R)-2-hydroxypropyl)-3,8-diazabicyclo[3.2.1]oct-8-yl)-7,9-dihydrofuro[3,4-f]quinazolin-6-yl)-7-fluorothieno[3,2-c]pyridine-3-carbonitrile] | 2.36 nM | 6.18 nM | – | 1.79 nM | – | – | AUC(0-t) ([7]; 20 mg/kg): 5170 ng·h/mL; CL/F ([7]; 20 mg/kg): 65.5 mL/min/kg; Cmax ([7]; 20 mg/kg): 377 ng/mL; Vd/F ([7]; 20 mg/kg): 28 L/kg; half-life ([7]; 20 mg/kg): 331 min; AUC(0-t) ([7]; 40 mg/kg): 17600 ng·h/mL; CL/F ([7]; 40 mg/kg): 36.7 mL/min/kg; Cmax ([7]; 40 mg/kg): 1170 ng/mL; Vd/F ([7]; 40 mg/kg): 19.6 L/kg; half-life ([7]; 40 mg/kg): 402 min; Vd/F ([8]; read-out: Apparent volume of distribution Vz/F): 9.07 L/kg; AUC(0-t) ([8]; read-out: Area under the curve AUC0-t): 9100 ng·h/mL; CL/F ([8]; read-out: Clearance CL/F): 36.5 mL/min/kg; half-life ([8]; read-out: Half life T1/2 (converted)): 172 min; Cmax ([8]; read-out: Plasma concentration Cmax): 1060 ng/mL
N#Cc1c(N)sc2c(F)ccc(-c3c4c(c5cnc(OCC6(CN7CCC(=CF)CC7)CC6)nc5c3F)COC4)c12 [Example 14, 2-Amino-7-fluoro-4-(5-fluoro-3-((1-((4-(fluoromethylene)piperidin-1-yl)methyl)cyclopropyl)methoxy)-7,9-dihydrofuro[3,4-f]quinazolin-6-yl)benzo[b]thiophene-3-carbonitrile] | 15.1 nM | – | 8.1 nM | 5.85 nM | – | – | –
N#Cc1c(N)sc2c(F)ccc(-c3c4c(c5cnc(OCC67CCCN6CC(=CF)C7)nc5c3F)COC4)c12 (stereo not shown) [Example 15, 2-Amino-7-fluoro-4-(5-fluoro-3-((2-(fluoromethylene)tetrahydro-1H-pyrrolizin-7a(5H)-yl)methoxy)-7,9-dihydrofuro[3,4-f]quinazolin-6-yl)benzo[b]thiophene-3-carbonitrile] | 9.12 nM | 14.7 nM | 6.9 nM | 1.71 nM | 7.9 nM | – | –
N#Cc1c(N)sc2c(F)ccc(-c3c4c(c5cnc(OCC67CCCN6CC(=C(F)F)C7)nc5c3F)COC4)c12 (stereo not shown) [Example 27, 2-Amino-4-(3-((2-(difluoromethylene)tetrahydro-1H-pyrrolizin-7a(5H)-yl)methoxy)-5-fluoro-7,9-dihydrofuro[3,4-f]quinazolin-6-yl)-7-fluorobenzo[b]thiophene-3-carbonitrile] | – | – | 8.2 nM | 6.61 nM | 12.4 nM | 8.85 nM | –
N#Cc1c(N)sc2c(F)ccc(-c3c4c(c5c(C6CC6)nc(OC[C@@]67CCCN6C[C@H](F)C7)nc5c3F)COC4)c12 [Example 36, 2-Amino-4-(1-cyclopropyl-5-fluoro-3-(((2R,7aS)-2-fluorotetrahydro-1H-pyrrolizin-7a(5H)-yl)methoxy)-7,9-dihydrofuro[3,4-f]quinazolin-6-yl)-7-fluorobenzo[b]thiophene-3-carbonitrile] | – | – | – | – | 10.1 nM | 8.04 nM | –
N#Cc1c(N)sc2c(F)ccc(-c3c4c(c5cnc(OCC6(CN7CCC(=CF)CC7)CC6)nc5c3Cl)COC4)c12 [Example 39, 2-Amino-4-(5-chloro-3-((1-((4-(fluoromethylene)piperidin-1-yl)methyl)cyclopropyl)methoxy)-7,9-dihydrofuro[3,4-f]quinazolin-6-yl)-7-fluorobenzo[b]thiophene-3-carbonitrile] | 4.07 nM | 7.65 nM | 4 nM | 2.95 nM | 12.7 nM | 4.76 nM | –
C=CC(=O)N1CC2CCC(C1)N2c1nc(OCC2(CN3CCC(=C(F)F)CC3)CC2)nc2c(F)c(-c3ncc(F)c4sc(N)c(C#N)c34)c3c(c12)COC3 [Example 55] | – | – | – | – | – | 0.63 nM | –
C=CC(=O)N1C[C@H](C)N(c2nc(OCC3(CN4CCC(=C(F)F)CC4)CC3)nc3c(F)c(-c4ncc(F)c5sc(N)c(C#N)c45)c4c(c23)COC4)C[C@H]1C [Example 56] | – | – | – | – | – | 6.76 nM | –
